# Measurements: PubChem BioAssay AID2060606 (Molecular Pharmacology Branch, DTP, NCI, 2025)
# Test system: 922993-354-T-J3-PDC complex spheroids, viability, % test/control
# Assay: Anticancer human tumor 922993-354-T-J3-PDC patient-derived endometrial carcinoma cell line growth inhibition [CLK]
# Details: for IC50: curve of first compound; for viability, T/C: stronger effect = lower value
# Procedure, shortened: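 Multi-cell-type spheroids combined patient-derived tumor cells with HUVEC endothelial cells and human mesenchymal stem cells. Paired agents were dosed in half-log steps down from about clinical Cmax, or from 10 microM where Cmax was unknown.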
# 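Further: spheroids exposed to the agents for 7 days before readout.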
smiles,measurement,setting,value
Cn1ncnc1[C@H]1c2n[nH]c(=O)c3cc(F)cc(c23)N[C@@H]1c1ccc(F)cc1 + CN1CCN(c2cc(C(=O)Nc3cc4cc(-c5cnn(C)c5)ccc4cn3)ccn2)CC1,IC50,second compound 0.0316 µM,> 100 nM
same,IC50,second compound 0.1 µM,> 100 nM
same,IC50,second compound 0.316 µM,< 0.316 nM
same,IC50,second compound 1 µM,< 0.316 nM
same,IC50,second compound 3.16 µM,< 0.316 nM
same,IC50,second compound 10 µM,< 0.316 nM
same,"viability, T/C","second compound 0.0316 µM, first compound 0.000316 µM",126%
same,"viability, T/C","second compound 0.0316 µM, first compound 0.001 µM",121%
same,"viability, T/C","second compound 0.0316 µM, first compound 0.00316 µM",104%
same,"viability, T/C","second compound 0.0316 µM, first compound 0.01 µM",119%
same,"viability, T/C","second compound 0.0316 µM, first compound 0.0316 µM",119%
same,"viability, T/C","second compound 0.0316 µM, first compound 0.1 µM",75.3%
same,"viability, T/C","second compound 0.1 µM, first compound 0.000316 µM",110%
same,"viability, T/C","second compound 0.1 µM, first compound 0.001 µM",101%
same,"viability, T/C","second compound 0.1 µM, first compound 0.00316 µM",102%
same,"viability, T/C","second compound 0.1 µM, first compound 0.01 µM",103%
same,"viability, T/C","second compound 0.1 µM, first compound 0.0316 µM",116%
same,"viability, T/C","second compound 0.1 µM, first compound 0.1 µM",75.3%
same,"viability, T/C","second compound 0.316 µM, first compound 0.000316 µM",43.1%
same,"viability, T/C","second compound 0.316 µM, first compound 0.001 µM",35.2%
same,"viability, T/C","second compound 0.316 µM, first compound 0.00316 µM",41.5%
same,"viability, T/C","second compound 0.316 µM, first compound 0.01 µM",32.7%
same,"viability, T/C","second compound 0.316 µM, first compound 0.0316 µM",35.6%
same,"viability, T/C","second compound 0.316 µM, first compound 0.1 µM",20.4%
same,"viability, T/C","second compound 1 µM, first compound 0.000316 µM",0.13%
same,"viability, T/C","second compound 1 µM, first compound 0.001 µM",0.83%
same,"viability, T/C","second compound 1 µM, first compound 0.00316 µM",0.12%
same,"viability, T/C","second compound 1 µM, first compound 0.01 µM",0.32%
same,"viability, T/C","second compound 1 µM, first compound 0.0316 µM",0.11%
same,"viability, T/C","second compound 1 µM, first compound 0.1 µM",0.89%
same,"viability, T/C","second compound 3.16 µM, first compound 0.000316 µM",0.12%
same,"viability, T/C","second compound 3.16 µM, first compound 0.001 µM",1.22%
same,"viability, T/C","second compound 3.16 µM, first compound 0.00316 µM",0.35%
same,"viability, T/C","second compound 3.16 µM, first compound 0.01 µM",0.07%
same,"viability, T/C","second compound 3.16 µM, first compound 0.0316 µM",0.95%
same,"viability, T/C","second compound 3.16 µM, first compound 0.1 µM",1.3%
same,"viability, T/C","second compound 10 µM, first compound 0.000316 µM",0.13%
same,"viability, T/C","second compound 10 µM, first compound 0.001 µM",0.16%
same,"viability, T/C","second compound 10 µM, first compound 0.00316 µM",0.88%
same,"viability, T/C","second compound 10 µM, first compound 0.01 µM",0.13%
same,"viability, T/C","second compound 10 µM, first compound 0.0316 µM",1.94%
same,"viability, T/C","second compound 10 µM, first compound 0.1 µM",2.55%
